≈ marks a conversion by molar mass, not a printed value.
Experiments:
[1] = test system: Bacillus subtilis ATCC 6633; experiment: paper disk method, inhibitory zone diameter; format: cell-based; settings: read-out: inhibitory zone diameter
[2] = test system: E. coli K-12; experiment: paper disk method, inhibitory zone diameter; format: cell-based; settings: Escherichia coli, K12, read-out: inhibitory zone diameter
[3] = test system: Staphylococcus aureus 6538P; experiment: paper disk method, inhibitory zone diameter; format: cell-based; settings: read-out: inhibitory zone diameter
[4] = test system: E. coli HL-1629 (Kanamycin-resistant strain); experiment: microbe, parasite or virus in culture; format: cell-based; settings: Escherichia coli, read-out: inhibitory zone diameter
[5] = test system: Klebsiella 6; experiment: paper disk method, inhibitory zone diameter; format: cell-based; settings: Klebsiella, 6; 2000 γ/ml; read-out: inhibitory zone diameter
[6] = test system: Klebsiella 7; experiment: paper disk method, inhibitory zone diameter; format: cell-based; settings: Klebsiella, 7; 2000 γ/ml; read-out: inhibitory zone diameter
[7] = test system: Mycobacterium 607; experiment: paper disk method, inhibitory zone diameter; format: cell-based; settings: Mycobacterium, 607, read-out: inhibitory zone diameter
[8] = test system: Staphylococcus aureus 209P JC-1; experiment: antibacterial activity (Minimum Inhibitory Concentration); format: cell-based; settings: Staphylococcus aureus 209P JC-1; read-out: MIC
[9] = test system: Staphylococcus aureus Smith S-424; experiment: as above; format: cell-based; settings: SMITHS424; Staphylococcus aureus Smith S-424; read-out: MIC
[10] = test system: Staphylococcus aureus No. 26; experiment: as above; format: cell-based; settings: Staphylococcus aureus, NO.26
[11] = test system: Staphylococcus aureus C73-4; experiment: as above; format: cell-based; settings: Staphylococcus aureus, C734
[12] = test system: Staphylococcus aureus C73-10; experiment: as above; format: cell-based; settings: Staphylococcus aureus, C7310
[13] = test system: Staphylococcus aureus C73-21; experiment: as above; format: cell-based; settings: C7321; Staphylococcus aureus C73-21; read-out: MIC
[14] = test system: Staphylococcus albus PCI-1200A; experiment: as above; format: cell-based; settings: PCI1200A; Staphylococcus albus PCI-1200A; read-out: MIC
[15] = test system: Bacillus subtilis ATCC 6633; experiment: as above; format: cell-based; settings: ATCC6633; Bacillus subtilis ATCC 6633; read-out: MIC
[16] = test system: Bacillus anthracis No. 119; experiment: microbe, parasite or virus in culture; format: cell-based
[17] = test system: E. coli C73-1; experiment: antibacterial activity (Minimum Inhibitory Concentration); format: cell-based; settings: Escherichia coli, C731; E. coli C73-1; read-out: MIC
[18] = test system: E. coli C73-4; experiment: as above; format: cell-based; settings: Escherichia coli, C734; E. coli C73-4; read-out: MIC
[19] = test system: E. coli C73-12; experiment: as above; format: cell-based; settings: Escherichia coli, C7312
[20] = test system: Salmonella species C73-30; experiment: as above; format: cell-based; settings: C7330
[21] = test system: Shigella dysenteriae Shigae; experiment: microbe, parasite or virus in culture; format: cell-based
[22] = test system: Klebsiella pneumoniae; experiment: antibacterial activity (Minimum Inhibitory Concentration); format: cell-based
[23] = test system: Proteus morganii Kono; experiment: as above; format: cell-based; settings: Morganella morganii
[24] = test system: Proteus species C73-23; experiment: as above; format: cell-based; settings: Proteus species C73-23; read-out: MIC
[25] = test system: Proteus species C73-25; experiment: as above; format: cell-based; settings: Proteus species C73-25; read-out: MIC
[26] = test system: Proteus species C73-33; experiment: as above; format: cell-based; settings: Proteus species C73-33; read-out: MIC
[27] = test system: Proteus species C73-34; experiment: as above; format: cell-based; settings: Proteus species C73-34; read-out: MIC
[28] = test system: Enterococcus species C73-33; experiment: as above; format: cell-based; settings: Enterococcus, C7333
[29] = test system: Enterococcus species C73-17; experiment: as above; format: cell-based; settings: Enterococcus, C7317
[30] = test system: Vibrio parahaemolyticus K-3; experiment: as above; format: cell-based; settings: K3; Vibrio parahaemolyticus K-3; read-out: MIC
[31] = test system: Vibrio parahaemolyticus K-5; experiment: as above; format: cell-based; settings: K5; Vibrio parahaemolyticus K-5; read-out: MIC
[32] = test system: microorganisms indicated; experiment: antimicrobial activities, paper disk method (general statement); format: cell-based; settings: Tables 1 to 4
Experimental: The inhibitory activities were determined at various concentrations of the compounds using the paper disk method against the microorganisms indicated and the numerical values show the inhibitory zone diameter in terms of mm.

[33] = test system: male ICR mice; experiment: acute toxicity; settings: intravenous administration, 200 mg/kg

Q: Which zone of inhibition at 7.8 µg/mL ([1]; ATCC6633, 7.8 γ/ml) does the source give for `NC[C@H]1O[C@H](O[C@H]2C[C@@H](O)[C@H](N)C[C@@H]2N)[C@H](N)[C@@H](O)[C@@H]1O` [5-Deoxyneamine, 5-deoxyneamine] here?
A: Its zone of inhibition at 7.8 µg/mL is 11.2 mm.

Q: What about the zone of inhibition at 15.6 µg/mL ([1]; ATCC6633, 15.6 γ/ml) of the same compound?
A: The zone of inhibition at 15.6 µg/mL was 13.8 mm.

Q: And the zone of inhibition at 31.2 µg/mL ([1]; ATCC6633, 31.2 γ/ml)?
A: The zone of inhibition at 31.2 µg/mL was 15.7 mm.

Q: And the zone of inhibition at 62.5 µg/mL ([1]; ATCC6633, 62.5 γ/ml)?
A: Its zone of inhibition at 62.5 µg/mL is 20.5 mm.

Q: What about the zone of inhibition at 125 µg/mL ([1]; ATCC6633, 125 γ/ml) of the same compound?
A: Its zone of inhibition at 125 µg/mL is 23.2 mm.

Q: What about the zone of inhibition at 250 µg/mL ([1]; ATCC6633, 250 γ/ml) of the same compound?
A: Its zone of inhibition at 250 µg/mL is 25.6 mm.

Q: And the zone of inhibition at 500 µg/mL ([1]; ATCC6633, 500 γ/ml)?
A: The zone of inhibition at 500 µg/mL was 28.3 mm.

Q: And the zone of inhibition at 1000 µg/mL ([1]; ATCC6633, 1000 γ/ml)?
A: The zone of inhibition at 1000 µg/mL was 30.8 mm.

Q: And the zone of inhibition at 2000 µg/mL ([1]; ATCC6633, 2000 γ/ml)?
A: The zone of inhibition at 2000 µg/mL was 33.4 mm.

Q: And the zone of inhibition at 7.8 µg/mL ([2]; 7.8 γ/ml)?
A: Its zone of inhibition at 7.8 µg/mL is 0 mm.

Q: What about the zone of inhibition at 15.6 µg/mL ([2]; 15.6 γ/ml) of the same compound?
A: Its zone of inhibition at 15.6 µg/mL is 0 mm.

Q: And the zone of inhibition at 31.2 µg/mL ([2]; 31.2 γ/ml)?
A: Its zone of inhibition at 31.2 µg/mL is 12.1 mm.

Q: And the zone of inhibition at 62.5 µg/mL ([2]; 62.5 γ/ml)?
A: The zone of inhibition at 62.5 µg/mL was 14.7 mm.

Q: What about the zone of inhibition at 125 µg/mL ([2]; 125 γ/ml) of the same compound?
A: Its zone of inhibition at 125 µg/mL is 17.2 mm.

Q: And the zone of inhibition at 250 µg/mL ([2]; 250 γ/ml)?
A: The zone of inhibition at 250 µg/mL was 18.7 mm.

Q: And the zone of inhibition at 500 µg/mL ([2]; 500 γ/ml)?
A: The zone of inhibition at 500 µg/mL was 22 mm.

Q: What about the zone of inhibition at 1000 µg/mL ([2]; 1000 γ/ml) of the same compound?
A: Its zone of inhibition at 1000 µg/mL is 24.5 mm.

Q: And the zone of inhibition at 2000 µg/mL ([2]; 2000 γ/ml)?
A: The zone of inhibition at 2000 µg/mL was 26.6 mm.

Q: What about the zone of inhibition at 7.8 µg/mL ([3]; 7.8 γ/ml) of the same compound?
A: The zone of inhibition at 7.8 µg/mL was 0 mm.

Q: And the zone of inhibition at 15.6 µg/mL ([3]; 15.6 γ/ml)?
A: Its zone of inhibition at 15.6 µg/mL is 0 mm.

Q: And the zone of inhibition at 31.2 µg/mL ([3]; 31.2 γ/ml)?
A: Its zone of inhibition at 31.2 µg/mL is 0 mm.

Q: What about the zone of inhibition at 62.5 µg/mL ([3]; 62.5 γ/ml) of the same compound?
A: The zone of inhibition at 62.5 µg/mL was 10.3 mm.

Q: What about the zone of inhibition at 125 µg/mL ([3]; 125 γ/ml) of the same compound?
A: Its zone of inhibition at 125 µg/mL is 12.4 mm.

Q: What about the zone of inhibition at 250 µg/mL ([3]; 250 γ/ml) of the same compound?
A: The zone of inhibition at 250 µg/mL was 15.3 mm.

Q: What about the zone of inhibition at 500 µg/mL ([3]; 500 γ/ml) of the same compound?
A: The zone of inhibition at 500 µg/mL was 18.5 mm.

Q: What about the zone of inhibition at 1000 µg/mL ([3]; 1000 γ/ml) of the same compound?
A: Its zone of inhibition at 1000 µg/mL is 20.4 mm.

Q: What about the zone of inhibition at 2000 µg/mL ([3]; 2000 γ/ml) of the same compound?
A: Its zone of inhibition at 2000 µg/mL is 22.5 mm.

Q: And the zone of inhibition at 1000 µg/mL [4]?
A: The zone of inhibition at 1000 µg/mL was 0 mm.

Q: And the zone of inhibition at 2000 µg/mL [4]?
A: The zone of inhibition at 2000 µg/mL was 13.9 mm.

Q: And the zone of inhibition at 2000 µg/mL [5]?
A: Its zone of inhibition at 2000 µg/mL is 0 mm.

Q: And the zone of inhibition at 2000 µg/mL [6]?
A: Its zone of inhibition at 2000 µg/mL is 0 mm.

Q: What about the zone of inhibition at 62.5 µg/mL ([7]; 62.5 γ/ml) of the same compound?
A: The zone of inhibition at 62.5 µg/mL was 0 mm.

Q: And the zone of inhibition at 125 µg/mL ([7]; 125 γ/ml)?
A: Its zone of inhibition at 125 µg/mL is 0 mm.

Q: And the zone of inhibition at 250 µg/mL ([7]; 250 γ/ml)?
A: Its zone of inhibition at 250 µg/mL is 10.4 mm.

Q: What about the zone of inhibition at 500 µg/mL ([7]; 500 γ/ml) of the same compound?
A: The zone of inhibition at 500 µg/mL was 16.4 mm.

Q: What about the zone of inhibition at 1000 µg/mL ([7]; 1000 γ/ml) of the same compound?
A: The zone of inhibition at 1000 µg/mL was 22 mm.

Q: What about the zone of inhibition at 2000 µg/mL ([7]; 2000 γ/ml) of the same compound?
A: Its zone of inhibition at 2000 µg/mL is 26.8 mm.

Q: What about the MIC [8] of the same compound?
A: The MIC was 0.39 µg/mL (≈ 1.27 µM).

Q: What about the MIC [9] of the same compound?
A: Its MIC is 0.78 µg/mL (≈ 2.55 µM).

Q: What about the MIC [10] of the same compound?
A: Its MIC is 1.56 µg/mL (≈ 5.09 µM).

Q: What about the MIC [11] of the same compound?
A: The MIC was 1.56 µg/mL (≈ 5.09 µM).

Q: What about the MIC [12] of the same compound?
A: Its MIC is 1.56 µg/mL (≈ 5.09 µM).

Q: And the MIC [13]?
A: The MIC was 0.2 µg/mL (≈ 0.653 µM).

Q: And the MIC [14]?
A: The MIC was 0.2 µg/mL (≈ 0.653 µM).

Q: And the MIC [15]?
A: The MIC was 0.39 µg/mL (≈ 1.27 µM).

Q: And the MIC [16]?
A: Its MIC is 1.56 µg/mL (≈ 5.09 µM).

Q: And the MIC [17]?
A: The MIC was 12.5 µg/mL (≈ 40.8 µM).

Q: What about the MIC [18] of the same compound?
A: The MIC was 12.5 µg/mL (≈ 40.8 µM).

Q: What about the MIC [19] of the same compound?
A: The MIC was 6.25 µg/mL (≈ 20.4 µM).

Q: And the MIC [20]?
A: Its MIC is 12.5 µg/mL (≈ 40.8 µM).

Q: What about the MIC [21] of the same compound?
A: Its MIC is 6.25 µg/mL (≈ 20.4 µM).

Q: What about the MIC [22] of the same compound?
A: Its MIC is 6.25 µg/mL (≈ 20.4 µM).

Q: And the MIC [23]?
A: Its MIC is 6.25 µg/mL (≈ 20.4 µM).

Q: And the MIC [24]?
A: The MIC was 12.5 µg/mL (≈ 40.8 µM).

Q: And the MIC [25]?
A: The MIC was 3.13 µg/mL (≈ 10.2 µM).

Q: What about the MIC [26] of the same compound?
A: The MIC was 50 µg/mL (≈ 163 µM).

Q: What about the MIC [27] of the same compound?
A: Its MIC is 12.5 µg/mL (≈ 40.8 µM).

Q: And the MIC [28]?
A: The MIC was 6.25 µg/mL (≈ 20.4 µM).

Q: What about the MIC [29] of the same compound?
A: The MIC was 6.25 µg/mL (≈ 20.4 µM).

Q: And the MIC [30]?
A: The MIC was 0.39 µg/mL (≈ 1.27 µM).

Q: And the MIC [31]?
A: Its MIC is 12.5 µg/mL (≈ 40.8 µM).

Q: What about the “antimicrobial activities relative to neamine” value [32] of the same compound?
A: Its value is “superior to those of the parent compound neamine”.

Q: And the “acute toxicity, survival” value [33]?
A: Its value is “all male ICR mice were survived”.
